Residues, ends and D or L forms follow the SMILES beside them.

We go through 33 molecules from ChEMBL document CHEMBL3352520, “CoMFA and CoMSIA analysis of ACE-inhibitory, antimicrobial and bitter-tasting peptides” (Eur J Med Chem, 2014).

The target of this experiment is Angiotensin-converting enzyme (Homo sapiens) (UniProt P12821). The experiment is described as follows: Inhibition of ACE (unknown origin). Further details: unit not given here.
Chain of Angiotensin-converting enzyme (Homo sapiens) (P12821 whole entry): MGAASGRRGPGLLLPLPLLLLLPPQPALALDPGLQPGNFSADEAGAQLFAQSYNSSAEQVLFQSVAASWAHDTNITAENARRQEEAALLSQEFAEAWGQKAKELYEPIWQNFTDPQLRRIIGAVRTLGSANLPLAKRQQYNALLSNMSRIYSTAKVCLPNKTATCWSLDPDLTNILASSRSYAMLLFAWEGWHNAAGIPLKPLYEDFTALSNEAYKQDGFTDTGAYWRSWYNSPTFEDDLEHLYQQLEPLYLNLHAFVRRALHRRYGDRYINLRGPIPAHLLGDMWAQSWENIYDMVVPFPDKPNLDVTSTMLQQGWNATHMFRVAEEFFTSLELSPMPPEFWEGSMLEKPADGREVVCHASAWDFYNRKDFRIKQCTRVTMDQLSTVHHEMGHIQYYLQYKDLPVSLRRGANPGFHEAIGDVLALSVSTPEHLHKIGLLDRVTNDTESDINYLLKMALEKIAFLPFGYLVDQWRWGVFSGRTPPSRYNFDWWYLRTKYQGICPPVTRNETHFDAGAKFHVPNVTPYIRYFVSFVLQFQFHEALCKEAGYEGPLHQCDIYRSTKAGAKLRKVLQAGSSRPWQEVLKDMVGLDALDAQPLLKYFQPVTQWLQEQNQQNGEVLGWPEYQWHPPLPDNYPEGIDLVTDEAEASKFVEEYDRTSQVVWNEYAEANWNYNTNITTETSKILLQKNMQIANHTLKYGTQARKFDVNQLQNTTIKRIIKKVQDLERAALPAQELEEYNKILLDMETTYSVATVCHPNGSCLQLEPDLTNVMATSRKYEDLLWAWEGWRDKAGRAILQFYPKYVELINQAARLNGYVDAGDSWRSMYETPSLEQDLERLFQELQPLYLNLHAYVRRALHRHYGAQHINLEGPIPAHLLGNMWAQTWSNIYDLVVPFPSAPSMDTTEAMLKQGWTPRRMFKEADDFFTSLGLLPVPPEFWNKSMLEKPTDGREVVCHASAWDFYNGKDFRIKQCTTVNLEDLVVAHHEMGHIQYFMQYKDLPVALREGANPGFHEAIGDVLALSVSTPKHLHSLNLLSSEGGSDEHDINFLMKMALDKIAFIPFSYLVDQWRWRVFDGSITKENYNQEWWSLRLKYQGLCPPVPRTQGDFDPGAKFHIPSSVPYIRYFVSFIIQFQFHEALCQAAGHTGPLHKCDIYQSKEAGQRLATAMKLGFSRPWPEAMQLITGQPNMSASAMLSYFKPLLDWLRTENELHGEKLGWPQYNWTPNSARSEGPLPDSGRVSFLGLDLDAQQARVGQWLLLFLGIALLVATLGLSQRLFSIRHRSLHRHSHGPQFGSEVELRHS

For the molecule `CC(C)[C@H](N)C(=O)N[C@@H](Cc1ccc(O)cc1)C(=O)O` (H-Val-Tyr-OH), the logIC50 was determined as 1.2.

For `CC(C)[C@H](N)C(=O)NCC(=O)N1CCC[C@H]1C(=O)O` (H-Val-Gly-Pro-OH), the logIC50 was found to be 1.42.

Molecule `CC(C)[C@H](N)C(=O)N[C@@H](Cc1ccc(O)cc1)C(=O)N1CCC[C@H]1C(=O)O` (H-Val-Tyr-Pro-OH) showed a logIC50 of 2.46.

In turn, `CC(C)C[C@H](NC(=O)[C@@H](N)CC(=O)O)C(=O)N1CCC[C@H]1C(=O)O` (H-Asp-Leu-Pro-OH) had a logIC50 of 0.68.

Molecule `C[C@H](N)C(=O)N[C@@H](Cc1ccccc1)C(=O)O` gave a logIC50 of 1.88.

For `NCC(=O)N[C@@H](CCC(=O)O)C(=O)N1CCC[C@H]1C(=O)O` (H-Gly-Glu-Pro-OH), the logIC50 was determined as 2.51.

Turning to `C[C@@H](O)[C@H](N)C(=O)N[C@@H](Cc1ccccc1)C(=O)O` (H-Thr-Phe-OH), the logIC50 worked out at 1.95.

Take `CC(C)[C@H](N)C(=O)N[C@@H](CCCNC(=N)N)C(=O)N1CCC[C@H]1C(=O)O` (H-Val-Arg-Pro-OH): the logIC50 was 0.34.

The molecule `CC[C@H](C)[C@H](N)C(=O)N[C@@H](CC(C)C)C(=O)N1CCC[C@H]1C(=O)N1CCC[C@H]1C(=O)O` (H-ILPP-OH) displayed a logIC50 of 2.24.

Consider `NCCCC[C@H](NC(=O)[C@@H]1CCCN1)C(=O)N[C@@H](Cc1cnc[nH]1)C(=O)N1CCC[C@H]1C(=O)O` (H-PKHP-OH), for which the logIC50 turned out to be 2.85.

For the molecule `CC[C@H](C)[C@H](N)C(=O)N[C@@H](CCC(=O)O)C(=O)N1CCC[C@H]1C(=O)O` (H-Ile-Glu-Pro-OH), the logIC50 was found to be 0.2.

The molecule H-LHLWLP-OH showed a logIC50 of 0.95.

In turn, H-DKIHP-OH registered a logIC50 of 2.05.

In turn, `NC(N)=NCCC[C@H](N)C(=O)N[C@@H](Cc1c[nH]c2ccccc12)C(=O)O` (H-Arg-Trp-OH) yielded a logIC50 of 1.2.

The molecule H-HQIYP-OH returned a logIC50 of 2.04.

As to `N[C@@H](CO)C(=O)N[C@@H](Cc1ccc(O)cc1)C(=O)O` (H-Ser-Tyr-OH), the logIC50 stood at 1.82.

`C[C@H](N)C(=O)N[C@@H](Cc1c[nH]c2ccccc12)C(=O)O` (H-Ala-Trp-OH) returned a logIC50 of 1.08.

Take `CC(C)[C@H](N)C(=O)N[C@H](C(=O)N1CCC[C@H]1C(=O)N1CCC[C@H]1C(=O)O)C(C)C` (H-VVPP-OH): the logIC50 was found to be 2.45.

The molecule `N[C@@H](CO)C(=O)N1CCC[C@H]1C(=O)N[C@@H](Cc1ccc(O)cc1)C(=O)N1CCC[C@H]1C(=O)O` (H-SPYP-OH) yielded a logIC50 of 2.93.

Molecule `CC(C)C[C@H](N)C(=O)N[C@@H](Cc1c[nH]c2ccccc12)C(=O)O` returned a logIC50 of 1.24.

The molecule `N[C@@H](CC(=O)O)C(=O)N[C@@H](Cc1ccc(O)cc1)C(=O)O` (H-Asp-Tyr-OH) yielded a logIC50 of 2.

Consider `NCC(=O)N[C@@H](Cc1ccc(O)cc1)C(=O)O` (H-Gly-Tyr-OH), for which the logIC50 was determined as 2.32.

In turn, `N[C@@H](CC(=O)O)C(=O)N[C@@H](Cc1ccccc1)C(=O)O` (H-Asp-Phe-OH) came in with a logIC50 of 2.56.

As for `CC(C)[C@H](NC(=O)[C@H](C)N)C(=O)NCC(=O)N1CCC[C@H]1C(=O)O` (H-AVGP-OH), the logIC50 was found to be 0.49.

`NC(=O)CC[C@H](NC(=O)[C@@H](N)Cc1ccccc1)C(=O)N1CCC[C@H]1C(=O)O` (H-Phe-Gln-Pro-OH): the logIC50 was found to be 1.08.

Consider `NCCCC[C@H](N)C(=O)N1CCC[C@H]1C(=O)O` (H-Lys-Pro-OH), for which the logIC50 came out at 1.34.

H-VRGPFP-OH registered a logIC50 of 2.77.

Consider H-TKVIP-OH, for which the logIC50 was 2.6.

For the molecule `N[C@@H](Cc1ccccc1)C(=O)N[C@@H](CCC(=O)O)C(=O)N1CCC[C@H]1C(=O)O` (H-Phe-Glu-Pro-OH), the logIC50 turned out to be 1.08.

Molecule `NC(N)=NCCC[C@H](N)C(=O)N1CCC[C@H]1C(=O)O` (H-Arg-Pro-OH) registered a logIC50 of 1.32.

In turn, `CC(C)C[C@H](N)C(=O)N[C@@H](CCC(N)=O)C(=O)N1CCC[C@H]1C(=O)O` (H-Leu-Gln-Pro-OH) showed a logIC50 of 0.28.

With H-LAYFYP-OH, the logIC50 is 1.81.

In turn, `CC[C@H](C)[C@H](N)C(=O)N1CCC[C@H]1C(=O)O` (H-Ile-Pro-OH) yielded a logIC50 of 2.11.
